Where two headings read alike, the source gives them in different places.
Legend:
Lewis lung carcinoma = Lewis lung carcinoma in mice
colon 38 adenocarcinoma = assay: Colon 38 adenocarcinoma in mice; assay type: in vivo, BDF1 mice
L1210 leukemia = L1210 leukemia tumor model in mice
Method: The compounds were tested in male BDF1 mice (18-22 g, 6 mice/group) bearing L1210 leukemia cells. […] Diluted ascitic fluid (0.1 mL) containing 10^5 leukemia cells were inoculated, i.p. in mice on day 0.

JC breast adenocarcinoma = JC breast adenocarcinoma in mice; assay type: in vivo, Balb/c mice
Method: (§1) JC is an epithelial-like cell line established in 1983 from a spontaneous primary adenocarcinoma along the milk line (Capone et al., Cancer Immuno. Immunother. 1987, 25, 93-9). It produces tumors with papillary adenocarcinoma morphology in BALB/c mice. […] At the lowest dose of 0.16 mg/kg, (+)-YW-391 (LCK: 1.5) killed 10-times more tumor cells than Dox at 8 mg/kg (LCK: 0.78). (+)-YW-391 has the potential to be a powerful new treatment for human breast cancer.

[1] = test system: SKOV-3 human ovarian cancer; assay: SKOV-3 human ovarian cancer xenograft; assay type: in vivo, CD1 nude mice
Method: Ovarian cancer is one of the most difficult to treat human cancers, and very few drugs are effective. YW-391 had significant activity in SKOV-3 human ovarian cancer xenograft (FIG. 8 and Table 9). […] [table] treated animals. YW-391 and doxorubicin were administered iv., and paclitaxel was administered ip. Equivalents

L1210 leukemia cells = assay: Anticancer activity in vitro, 3H-thymidine incorporation; assay type: cell-based, murine; conditions: Mus musculus, 48-h proliferation assay, 3H-thymidine uptake, mean of two experiments
Method: The antitumor activity of the compounds was evaluated in vitro against L1210 leukemia and human SKOV-3 ovarian cancer cells (Table 4). L1210 leukemia cells and SKOV-3 (2.5×10^4 cells/well) in RPMI-1640 medium supplemented with 10% FCS medium were seeded in a 96-well plate. Drugs (10 uL) at increasing concentrations were added to each well, and the total volume was adjusted to 0.1 mL/well using the same medium. For L1210 leukemia cells, the plate was incubated for 24 h at 37° C. followed by addition of 10 uL of ^3H-thymidine (20 uCi/mL). […] The plate was incubated for another 24 h. The cells were harvested, and radioactivity was counted using the Packard Matrix 96 beta counter. The results were expressed as the minimal concentration that inhibits ^3H-thymidine incorporation by 50% (IC50). Percent growth inhibition was calculated as follows: [(total cpm−experimental cpm)/total cpm]×100.

various tumors = conditions: cited from earlier work
[2] = one patient with liver cancer, 40 microg/m^2, one cycle (days 1-5); cited from earlier work
various cancer cells = various cancer cells in vitro, 1 h exposure (Ghielmini et al. 1997); cited from earlier work
[3] = test system: mouse renal RENCA, human breast cancers MDA-MB 435 and MCF-7; conditions: three animal tumor models; cited from earlier work
[4] = test system: MDA-MB 435 human breast cancer; conditions: cited from earlier work
endogenous albumin = molecular target: T1, endogenous albumin (Homo sapiens, UniProt P02768); conditions: human blood plasma; cited from earlier work
T1 construct: selectivity of Dox-MH for endogenous albumin, Dox-MH was incubated with human blood plasma; from tissue; host or cells: human blood plasma

HSA = HSA (Homo sapiens, UniProt P02768); conditions: exogenously added HSA; cited from earlier work
[5] = JC breast adenocarcinoma in mice; assay type: in vivo, Balb/c mice; conditions: BALB/c, mouse, in vivo, intravenous, 8 mg/kg; mice bearing JC
Method: as §1

[6] = 0.2 mg/kg i.v. on days 1, 5, 12
[7] = 3.0 mg/kg i.v. on days 1, 5, 12

HSA, sequence (P02768 25-609): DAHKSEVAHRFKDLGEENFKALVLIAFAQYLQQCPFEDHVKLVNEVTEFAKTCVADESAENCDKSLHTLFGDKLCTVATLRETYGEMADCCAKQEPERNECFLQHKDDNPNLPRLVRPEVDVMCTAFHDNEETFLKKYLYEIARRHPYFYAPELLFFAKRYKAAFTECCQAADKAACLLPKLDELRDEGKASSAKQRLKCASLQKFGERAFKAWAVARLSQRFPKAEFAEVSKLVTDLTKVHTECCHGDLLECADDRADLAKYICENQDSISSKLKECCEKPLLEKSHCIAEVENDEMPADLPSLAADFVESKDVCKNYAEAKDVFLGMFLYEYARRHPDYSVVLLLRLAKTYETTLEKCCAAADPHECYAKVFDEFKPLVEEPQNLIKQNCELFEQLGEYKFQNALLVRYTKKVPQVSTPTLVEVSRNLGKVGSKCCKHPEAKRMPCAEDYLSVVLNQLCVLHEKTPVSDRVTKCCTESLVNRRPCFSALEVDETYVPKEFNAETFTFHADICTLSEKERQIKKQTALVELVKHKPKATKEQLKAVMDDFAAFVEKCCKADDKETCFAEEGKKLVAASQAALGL
T1 sequence (P02768 25-609): as above

With O=C(CCCCCN1C(=O)C=CC1=O)Oc1cc2c(c3ccccc13)[C@H](CCl)CN2C(=O)c1cc2cc(NC(=O)c3cc4cc(F)ccc4[nH]3)ccc2[nH]1 [(+)-YW-391] the “% Maximum weight loss” value (Lewis lung carcinoma; [6]) was −17%, the “Log10 cell kill (LCK)” value (Lewis lung carcinoma; [6]) was 0.75 and the TGIs (Lewis lung carcinoma; no dose given) was 98%. For the same molecule, the “tumor cells killed relative to 5-FU at 70 mg/kg” value (colon 38 adenocarcinoma; 0.15 mg/kg (LCK 2.3) versus 5-FU 70 mg/kg (LCK 1.1)) was 10 times, the “% Maximum weight loss” value (colon 38 adenocarcinoma; 0.3 mg/kg q4d × 2 i.v.) was −25% and the “% ILS” value (L1210 leukemia; 0.05 mg/kg i.v. on day 1) was 40%. For the same molecule, the “% ILS” value (L1210 leukemia; 0.1 mg/kg i.v. on day 1) was 51%, the “tumor cells killed relative to Dox at 8 mg/kg” value (JC breast adenocarcinoma; 0.16 mg/kg (LCK 1.5) versus Dox 8 mg/kg (LCK 0.78)) was 10 times and the TGI (JC breast adenocarcinoma; at MTD, dose not given) was 98%. The “% Maximum weight loss” value ([1]; 0.13 mg/kg iv. on days 15, 24, 33) was −3%.

For O=C(CCCCCN1C(=O)C=CC1=O)Oc1cc2c(c3ccccc13)[C@H](CCl)CN2C(=O)c1cc2cc(NC(=O)c3cc4ccccc4o3)ccc2[nH]1 [(+)-YW-392], the IC50 (L1210 leukemia cells) was 31 nM.

For Cc1c[nH]c2c1[C@@]13C[C@@H]1CN(C(=O)c1cc4cc(NC(=O)c5cc6ccccc6o5)ccc4[nH]1)C3=CC2=O [Adozelesin, adozelesin], the “antitumor activity in vivo” value (various tumors; L1210 leukemia, B16 melanoma, M5076 sarcoma, colon 38, colon CX-1, lung LX-1, pancreas 02, ovarian 2780 in mice (Li et al. 1991)) is listed as “very active”.

In the case of Cc1c[nH]c2c(O)cc3c(c12)[C@H](CCl)CN3C(=O)c1cc2cc(NC(=O)Nc3ccc4[nH]c(C(=O)N5C[C@@H](CCl)c6c5cc(O)c5[nH]cc(C)c65)cc4c3)ccc2[nH]1 [Bizelesin, bizelesin], the “antitumor activity in vivo” value (various tumors; P388, L1210, B16, UACC-62, LOX IMVI, SK-MEL-3, CAKI-1, LX-1, Lewis lung, HT-29, colon 38, pancreas 02, MCF7, MX-1 (Carter et al. 1996)) is given as “effective”.

For CCN(CC)c1ccc2cc(C(=O)Nc3ccc4[nH]c(C(=O)N5C[C@@H](CCl)c6c5cc(OC(=O)Nc5ccccc5)c5[nH]cc(C)c65)cc4c3)oc2c1 [Carzelesin, carzelesin], the “duration of partial remission” value [2] is listed as 8 months, the “regression of primary liver cancer” value [2] is listed as 50% and the “antitumor activity in vivo” value (various tumors; several colon adenocarcinomas and pediatric rhabdomyosarcomas (Houghton et al. 1995)) is listed as “effective”. For the same molecule, the “average IC70 value” (various cancer cells) was 0.23 ng/mL.

For N.N.[Cl][Pt][Cl] [Cisplatin, cisplatin], the “% Maximum weight loss” value (Lewis lung carcinoma; [7]) was −13%, the “% Tumor growth inhibition” value (Lewis lung carcinoma; [7]) was 74% and the “Log10 cell kill (LCK)” value (Lewis lung carcinoma; [7]) was 0.45.

For COc1cccc2c1C(=O)c1c(O)c3c(c(O)c1C2=O)C[C@@](O)(/C(CO)=N/NC(=O)CCCCCN1C(=O)C=CC1=O)C[C@@H]3O[C@H]1C[C@H](N)[C@H](O)[C@H](C)O1 [Dox-MH], the “antitumor efficacy and toxicity versus free doxorubicin” value [3] is given as “distinctly superior to free doxorubicin”, the body weight change ([4]; after 24 days of drug administration) is given as “did not produce an overall change in body weight” and the antitumor response ([4]; optimal dose 3×39.3 umol/kg (3×23 mg/kg)) is given as “complete remissions”. For the same molecule, the “time by which all of the Dox-MH had reacted” value (endogenous albumin) was no more than 90 min, the “time by which all of the Dox-MH had reacted” value (HSA) was no more than 90 min and the “time within which majority of the Dox-MH reacted with HSA” value (HSA) was no more than 5 min.

For COc1cccc2c1C(=O)c1c(O)c3c(c(O)c1C2=O)C[C@@](O)(C(=O)CO)C[C@@H]3O[C@H]1C[C@H](N)[C@H](O)[C@H](C)O1 [Doxorubicin, doxorubicin], the “% ILS” value (L1210 leukemia; 10.0 mg/kg i.v. on day 1) is given as 85%, the antitumor response ([4]; free Dox) is given as “modest antitumor activity” and the body weight loss ([4]; treatment with free Dox) is given as “about 10%”. For the same molecule, the MTD [5] was 8 mg/kg, the “% Maximum weight loss” value (JC breast adenocarcinoma; 8.0 mg/kg q4d × 3 i.v.) was −25% and the “% Tumor growth inhibition” value (JC breast adenocarcinoma; 8.0 mg/kg q4d × 3 i.v.) was 82%. The “Log10 cell kill (LCK)” value (JC breast adenocarcinoma; 8.0 mg/kg q4d × 3 i.v.) was 0.78, the “% Maximum weight loss” value ([1]; 5 mg/kg iv. on days 15, 24, 33) was −4% and the “% Tumor growth inhibition” value ([1]; 5 mg/kg iv. on days 15, 24, 33) was 39%.

For COC(=O)c1c(C)[nH]c2c(OC(=O)N3CCN(C)CC3)cc3c(c12)[C@H](CBr)CN3C(=O)c1cc2cc(OC)c(OC)c(OC)c2[nH]1 [KW-2189], the “antitumor activity in vivo” value (various tumors; P388, L1210, B16, colon 26, colon 38, LC-6, ST-4, ST-40, LI-7, PAN-02, MX-1 (Kobayashi et al. 1994)) is given as “active”.

With CC(=O)O[C@H]1C(=O)[C@@]2(C)[C@H]([C@H](OC(=O)c3ccccc3)[C@]3(O)C[C@H](OC(=O)[C@H](O)[C@@H](NC(=O)c4ccccc4)c4ccccc4)C(C)=C1C3(C)C)[C@]1(OC(C)=O)CO[C@@H]1C[C@@H]2O [Paclitaxel, paclitaxel] the “% Maximum weight loss” value ([1]; 25 mg/kg ip. on days 15, 24, 33) was −1%.

From patent US20050250835A1, “Novel tumor-selective chemotherapeutic agents” (priority 2004, published 2005)
